Assays:
[1] = target: glyceraldehyde-3-phosphate dehydrogenase (GAPDH) (Homo sapiens, UniProt P04406); assay: GAPDH activity in A549 cells (KDalert); format: cell-based; parameters: GAPDH activity in A549 cells at different time points; endogenous in cells; host or cells: A549
Protocol: In an effort to decipher the mechanism of action of compounds 4 and 8, their effect on glyceraldehyde-3-phosphate dehydrogenase (GAPDH) activity was measured. GAPDH is a glycolytic enzyme which reversibly catalyzes the oxidation of D-glyceraldehyde-3-phosphate to 1,3-diphosphoglycerate. This method utilizes the conversion of NAD^+ to NADH by GAPDH in the presence of glyceraldehydes-3-phosphate and phosphate, which can be measured at an excitation of 560 nm and emission of 590 nm.
Cells were plated at a concentration of 30,000 cells per well and grown overnight. Then they were treated with 100 μM IPA/NO-aspirin and DEA/NO-aspirin for 1, 3, and 6 h followed by which 200 μL of KDalert lysis buffer was added to each well. The plate was incubated at 4° C. for 20 min to lyse the cells. Then 10 μL of cell lysate was transferred to a clean 96 well plate and 90 μL of KDalert mastermix was added to each well and fluorescence was measured at excitation of […]. […] It is also a critical glycolytic enzyme that can play an important role in cancer therapy as solid tumors are known to utilize glycolytic pathways even during normoxia to meet energy requirements (Gatenby et al., Nat. Rev. Cancer, 4(11):891099 (2004)). Thus, inhibition of GAPDH can diminish the […] of tumor cells.

[2] = test system: A549 cells; assay: MTT proliferation assay, A549 cells; format: cell-based; details: 48 h
Protocol: The effect of compounds 4 and 8 was studied on proliferation of A549 cells by 3-(4,5-Dimethylthiazol-2-yl)-2,5-diphenyltetrazolium bromide (MTT) assay. Cells were plated at a concentration of 10,000 cells per well in a 96 well plate and grown overnight. Then the cells were treated with different concentration of the compounds and controls for 48 h. After 48 h, a solution of 2 mg/ml MTT was added to each well and incubated for 1 hr. The media was then removed from each well and 100 μL DMSO was added to each well and the absorbance was recorded at 550 nm.

glyceraldehyde-3-phosphate dehydrogenase (GAPDH), sequence (P04406 whole entry): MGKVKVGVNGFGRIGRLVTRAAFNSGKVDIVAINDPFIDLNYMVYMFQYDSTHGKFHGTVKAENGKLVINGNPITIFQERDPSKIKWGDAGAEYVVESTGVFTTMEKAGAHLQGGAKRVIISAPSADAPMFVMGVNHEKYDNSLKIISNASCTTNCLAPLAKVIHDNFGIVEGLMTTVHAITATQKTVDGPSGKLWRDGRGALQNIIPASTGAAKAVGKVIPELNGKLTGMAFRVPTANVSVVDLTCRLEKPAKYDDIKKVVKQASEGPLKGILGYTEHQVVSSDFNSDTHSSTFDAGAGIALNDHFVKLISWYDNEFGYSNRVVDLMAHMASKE

## CC(=O)Oc1ccccc1C(=O)OCON=[N+]([O-])NC(C)C [IPA/NO-aspirin, O^2-(Acetylsalicyloyloxymethyl)-1-(N-isopropylamino)-diazen-1-ium-1,2-diolate]
[1]
  GAPDH Activity: inhibition of GAPDH activity at micro-molar concentrations
[2]
  toxicity in MTT assay: slightly higher toxicity than compound 8

From US8633177B2, “Nitroxyl (HNO) releasing compounds and uses thereof in treating diseases” (The United States of America, as represented by the …, priority 2010, dated 2014)
